Test results taken from PMC9011347, “Small-Molecule Inhibitors Targeting Lipolysis in Human Adipocytes” (Journal of the American Chemical Society, 2022).

What was measured:
mouse ATGL T146G = biological target: T1, mouse ATGL T146G (Mus musculus, UniProt Q8BJ56, T146G); assay: TAG hydrolase assay, humanized mouse ATGL variants; assay type: biochemical; conditions: variant T146G, NG-497 (10 μM) or Atglistatin (10 μM)
T1 construct: host or cells: Expi293 cells, cell lysate
Protocol: (§1) Figure 5 Analysis of chimeric proteins comprising human and mouse ATGL. (a) Schematic view of the minimal active domain of wild-type and chimeric ATGL variants (c1–c9). Nonidentical aa are indicated in blue and red for mouse and human ATGL, respectively. ATGL variants were expressed in Expi293 cells and TAG hydrolase activity was determined in cell lysates in the presence or absence of NG-497 (10 μM) and Atglistatin (10 μM), respectively. Inhibition of ATGL variants by respective inhibitors (tick mark) and lack of inhibition (cross) is indicated at the right edge. The expression of all ATGL variants was confirmed by Western blotting analysis (Figure S6). (b) Dose-dependent inhibition of human ATGL (aa 1–288) and c1 (human aa 1–158 and mouse aa 159–288) by NG-497. (c) Dose-dependent inhibition of mouse ATGL (aa 1–288) and c2 (mouse aa 1–158 and human aa 159–288) by Ai. IC50 values are shown in the insets. Data are presented as relative inhibition of respective DMSO controls and are indicated as mean ± SD. (d) 3D homology model of the minimal active domain of mouse ATGL (M1–L254) depicted as a cartoon. Residues 1–178 are in blue, and residues 179–254 are in gray. S47 and D166 comprising the active site are represented as green sticks. T101, C106, R109, N111, and S133 are colored in orange, A60, N68, I69, T93, C97, and T146 are colored in magenta. TEXT PRINTED IN THE PICTURE: (b) NG-497: IC50 [μM] (human): 1.3±0.1; IC50 [μM] (c1): 1.3±0.1 | (b) Ai: IC50 [μM] (human): n.det.; IC50 [μM] (c1): n.det. | (c) NG-497: IC50 [μM] (mouse): n.det.; IC50 [μM] (c2): n.det. | (c) Ai: IC50 [μM] (mouse): 2.5±0.3; IC50 [μM] (c2): 2.4±0.1 […]
(§2) The region between aa 60 and 146 of human and mouse ATGL comprises 12 nonidentical aa. We generated 3D homology models for the minimal active domain of mouse ATGL to obtain more detailed insight into the topology of the relevant region (Figure 5d). Based on this model, aa T101, C106, R109, N111, and S133 locate at peripheral (loop) regions (indicated in orange, Figure 5d). […] For all other nonidentical aa (indicated in magenta, Figure 5d), we generated variants with single aa substitutions. The humanized variants A60V, N68K, T93I, and C97F were inactivated by Ai but not NG-497 (Figure 5a).
(§3) Experimental details, materials, and methods
(§4) Expression of recombinant ATGL constructs and preparation of cell lysates. Expi293 cells were cultivated in Expi293 Expression Medium (GIBCO, Thermo Fisher Scientific, Waltham, USA) at standard conditions (37°C, 5% CO2, 95% humidified atmosphere, 125 rpm). DNA constructs containing ATGL from different species and chimeric ATGL variants in pcDNA3.1(+)myc-His C Vector were obtained from BioCat GmbH (Heidelberg, Germany). Cells were transfected with ExpiFectamine293 Transfection Kit (GIBCO) in Opti-Mem reduced serum medium (GIBCO) according to the manufacturer’s instructions. After 48 h, cells were harvested by centrifugation and washed three times with PBS. Cells were disrupted in buffer A (0.25 M sucrose, 1 mM EDTA, 1 mM dithiothreitol, 20µg/ml leupeptin, 2 µg/ml antipain, 1 µg/ml pepstatin, pH 7.0) by sonication (Virsonic 475, Virtis, Gardiner, USA). Nuclei and debris were removed by centrifugation at 1,000 g and 4°C for 10 min. Protein concentrations were determined using Bio-Rad protein assay (Bio-Rad 785, Bio-Rad Laboratories, Munich, Germany) using BSA as standard.
(§5) Expression and purification of mouse CGI-58. CGI-58 was expressed and purified as described 1. In brief, the coding sequence of mouse Cgi-58 was cloned into pHis-Sumo and co-transformed with the plasmid pTf16 expressing the chaperone Tig into E. coli BL21(DE3). Cells were cultured overnight at 37°C and 180 rpm in the presence of 40 µg/ml kanamycin and 34 µg/ml chloramphenicol. Thereafter, cells were transferred into fresh LB medium, grown until OD600 of 0.6, and expression was induced by the addition of 0.5 mM IPTG. After overnight incubation at 30°C, cells were harvested at 4,500 x g and 4°C for 20 min, […]

mouse ATGL I69F = biological target: T2, mouse ATGL I69F (Mus musculus, UniProt Q8BJ56, I69F); assay: TAG hydrolase assay, humanized mouse ATGL variants; assay type: biochemical; conditions: variant I69F, NG-497 (10 μM) or Atglistatin (10 μM)
T2 construct: host or cells: Expi293 cells, cell lysate
Protocol: as §1, §2, §3, §4, §5

T1 sequence (Q8BJ56 whole entry T146G): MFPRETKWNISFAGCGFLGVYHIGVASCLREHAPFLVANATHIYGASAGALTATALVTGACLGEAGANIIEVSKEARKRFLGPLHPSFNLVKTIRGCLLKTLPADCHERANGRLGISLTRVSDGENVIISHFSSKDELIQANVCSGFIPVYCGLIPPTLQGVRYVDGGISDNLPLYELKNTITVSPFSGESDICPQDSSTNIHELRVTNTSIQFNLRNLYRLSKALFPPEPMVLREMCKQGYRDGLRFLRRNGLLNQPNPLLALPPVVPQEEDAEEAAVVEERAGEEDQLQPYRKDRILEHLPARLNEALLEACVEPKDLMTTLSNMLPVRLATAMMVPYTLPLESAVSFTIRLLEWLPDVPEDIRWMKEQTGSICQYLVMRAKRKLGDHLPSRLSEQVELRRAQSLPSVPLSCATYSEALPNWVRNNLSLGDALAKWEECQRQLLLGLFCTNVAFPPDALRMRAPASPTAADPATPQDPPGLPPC
T2 sequence (Q8BJ56 whole entry I69F): as the sequence (Q8BJ56 whole entry T146G) above, with I69F, G146T counted along it

## CCOc1ccc(-c2cc(OC)cc(C(=O)OC(C)C)n2)cc1 [NG-497]
Mouse ATGL T146G
  inhibition of TAG hydrolase activity: neither inhibited
Mouse ATGL I69F
  inhibition of TAG hydrolase activity: neither inhibited

## CN(C)C(=O)Nc1cccc(-c2ccc(N(C)C)cc2)c1 [Atglistatin, reference compound]
Mouse ATGL T146G
  inhibition of TAG hydrolase activity: neither inhibited
Mouse ATGL I69F
  inhibition of TAG hydrolase activity: neither inhibited
